We go through two compounds from patent US4261883A (priority 1979, dated 1981).

Where two headings read alike, the source gives them in different places.

In one assay the test system is guinea pig ileum. Kind of assay: guinea pig ileum test (inhibition of voltage induced contractions). It counts as cell-based. The note with it: read-out: I.D.50 in the guinea pig ileum test.
In assay [1] the test system is opioid receptors in caudate nuclei homogenate S4e. Kind of assay: affinity labeling of opiate receptor sites by irradiation of azido compounds, caudate nuclei homogenate S4e. It counts as binding, bovine. The conditions noted are these: normorphine hydrochloride added before the azide and irradiation.

For the compound `Oc1ccc2c3c1O[C@H]1[C@@H](O)C=C[C@H]4[C@@H](C2)NCC[C@@]341` [normorphine], the IC50 in the assay with guinea pig ileum (Cavia porcellus) amounted to 120 nM. Besides, the “effect on the deactivation of the opioid receptors by the azide compounds” value in assay [1] is on record as “inhibit the deactivation of the opioid receptors”.
Consider (D-ala^ 2)met-enkephalinamide, for which the IC50 with guinea pig ileum was 12 nM.
